Measured values published in patent US7320806B2, “Compositions and methods for treating NIDDM and other conditions and disorders associated with AMPK regulation” (priority 2003, dated 2008).
“Also recorded” adds a separate entry of the source.

Tests used:
[1] = tested on: hippocampal neurons; settings: glucose deprivation, chemical hypoxia, glutamate, amyloid beta-peptide; cited from earlier work
[2] = tested on: 3T3-L1 adipocytes; settings: added at an early phase of differentiation; cited from earlier work
[3] = tested on: rat epitrochlearis muscles; settings: 30 microU/ml insulin, treated 3.5 h previously; cited from earlier work
[4] = administered before ischemia; cited from earlier work
[5] = chronic administration; cited from earlier work
[6] = tested on: AMPK; settings: cited from earlier work
[7] = tested on: astrocytes; settings: incubation of astrocytes; cited from earlier work
[8] = tested on: L6 muscle cells; assay: glucose uptake (2-NBDG) in L6 myotubes; assay type: cell-based
Experimental: The permeate portion of GMM was tested for glucose uptake in L6 muscle cells. L6 cells were grown as monolayers in Dulbecco's modified Eagle's medium (DMEM) containing 1 mM glutamine, 1 mM pyruvate and 25 mM glucose. The medium was supplemented with 5% fetal calf serum (FCS). Experiments were undertaken in 48-well plates seeded from pre-confluent flasks with 50 000 cells per well. The cells were grown to confluence and the medium was changed to DMEM containing 0.5% FCS and 2.5 mM glucose (L6 Myo Medium) for at least 76 hrs to induce differentiation of L6 cells and formation of L6 myotubes. Myotubes were then incubated with test substances for 30 minutes—Protocol SMM, or in Dulbecco's PBS supplemented with 20 mM Hepes and 2 mM glucose without serum—Serum-free Medium (SFM) Protocol as described by Fryer et al. (Activation of glucose transport by AMP-activated protein kinase via stimulation of Nitric oxide synthase, Diabetes, 49(12), 1978-85, 2000, Fryer LGD, et al, herein incorporated by reference in its entirety.).
Next, 30 uM of 2-NBDG was added for 2 minutes at 22 C. Subsequently, cell culture medium was removed and cells were washed twice with cold DPBS. Then, cells were lysed in 0.5% SDS. Fluorescence was measured at 466/542 nm (excitation/emission) using 100 ul of cell lysate in 2 ml of water.
Cells were cultured, and treated in L6 Myo Medium (SSM)—SSM Protocol or in serum-free medium (SFM—DPBS containing 20 mM Hepes, 2 mM glucose)—SFM Protocl as described by Fryer et al. Glucose uptake was measured by adding 30 uM of 2-NBDG for 2′ at 22 C. Experiments were performed in duplicates.
L-NMMA has been used in the experiment to verify whether GMM-induced glucose transport in L6 cells is or is not inhibited by NOS inhibitors, thus mimicking AICAR-induced mechanism of increased glucose transport. […]
In FIG. 14, permeate cells were tested to determine whether permeate-induced glucose uptake could be inhibited by L-NMMA at the same concentration as that used for inhibition of the AICA effect on glucose uptake. […] Glucose uptake was measured at 22 C for 2 minutes.

[9] = tested on: AMPK alpha2; settings: treatment for 10 weeks; cited from earlier work

NC(=O)c1ncn([C@@H]2O[C@H](COP(=O)(O)O)[C@@H](O)[C@H]2O)c1N [AICAR, 5′-aminoimidazole 4-carboxamide 1-ribonucleotide]
neuronal death [1]: protected hippocampal neurons against death
differentiation of 3T3-L1 adipocytes [2]: inhibit the differentiation
increase in glucose transport in response to insulin versus untreated control muscles [3]: about twofold greater
energy metabolism and hepatic injury [4]: simulated the benefits of preconditioning
GLUT4 protein expression [5]: enhance
HDL cholesterol levels [5]: increased
fasting concentrations of glucose and insulin [5]: decreased
lowering of systolic blood pressure [5]: 14.6+/−4.3 mmHg
oral glucose tolerance test [5]: normalized
plasma triglyceride levels [5]: significantly reduced
increase in AMPK activity over the resting level [6]: two- to three-fold increase
ketogenesis from palmitate and carnitine palmitoyltransferase I [7]: stimulate

CC(=O)O.CNC(=N)NCCC[C@H](N)C(=O)O [L-NMMA, NG-methyl-L-arginine, acetate salt]
effect on permeate/GMM-induced glucose uptake ([8]; L-NMMA 300 uM, 30 minutes pre-treatment in DPBS, acetate salt): inhibits; also recorded: blocks

CN(C)C(=N)N=C(N)N [Metformin, metformin]
AMPK alpha2 activity in the skeletal muscle [9]: significantly increased

insulin
glucose uptake increase ([8]; culture medium supplemented with 0.5% FCS (SSM)): 100-120%
glucose uptake increase ([8]; serum-free medium (DPBS)): 40-50%
